From patent publication US20210401768A1, “FORMULATIONS OF CANNABINOIDS FOR THE TREATMENT OF DERMATITIS AND INFLAMMATORY SKIN DISEASES” (Botanix Pharmaceuticals Ltd., priority 2017, published 2021)

What was measured:
[1] = Discoloration of CBD solutions and formulations on standing; type: physicochemical; settings: end of day
Text: The CBD2 material dissolved like the CBD1 therefore the CBD2 is CBD without the discoloration properties of CBD1.

[2] = system: cardiac inflammation produced by doxorubicin; settings: 5 mg/kg i.v. once daily for 4 weeks, rats; cited from earlier work
anandamide = settings: rat basophilic leukemia cells; cited from earlier work
[3] = Solubility of CBD in the Franz cell Receptor Fluid; type: physicochemical; settings: aqueous with cosolvent or surfactant or cyclodextrin; PBS, 0.01 wt % NaN3, 4 wt % hydroxypropyl-β-cyclodextrin, 1 wt % Brij O20
[4] = biological target: T1, human vanilloid receptor type 1 (VR1) (Homo sapiens, UniProt Q8NER1); settings: HEK-hVR1 transfected cells; cited from earlier work
T1 construct: expressed in transfected cells; host or cells: HEK cells transfected with hVR1 (HEK-hVR1)

[5] = in ethanol, reported value; cited from earlier work
[6] = system: ovalbumin-induced airway obstruction; settings: 1 mg/kg i.v., sensitized guinea-pigs; cited from earlier work
[7] = Solubility of CBD in solvents (weight to weight); type: physicochemical
Protocol: First, the solubility of cannabidiol (CBD) was assessed. The powder looked granulated under the microscope. […] The conclusions from the solubility studies were that OA and IPA were very good solvents and it was surprising that IPA was so much better than ethanol.
Solubility studies: CBD dissolved at the 10% level in AE and barely 9.5% in IPM. Further exploration was not conducted due to the small amount of drug API available for non-GMP work. CBD is soluble greater than 10% but probably not in excess of 20%, as the time to dissolve additional CBD was taking considerably longer.

T1 sequence (Q8NER1 whole entry): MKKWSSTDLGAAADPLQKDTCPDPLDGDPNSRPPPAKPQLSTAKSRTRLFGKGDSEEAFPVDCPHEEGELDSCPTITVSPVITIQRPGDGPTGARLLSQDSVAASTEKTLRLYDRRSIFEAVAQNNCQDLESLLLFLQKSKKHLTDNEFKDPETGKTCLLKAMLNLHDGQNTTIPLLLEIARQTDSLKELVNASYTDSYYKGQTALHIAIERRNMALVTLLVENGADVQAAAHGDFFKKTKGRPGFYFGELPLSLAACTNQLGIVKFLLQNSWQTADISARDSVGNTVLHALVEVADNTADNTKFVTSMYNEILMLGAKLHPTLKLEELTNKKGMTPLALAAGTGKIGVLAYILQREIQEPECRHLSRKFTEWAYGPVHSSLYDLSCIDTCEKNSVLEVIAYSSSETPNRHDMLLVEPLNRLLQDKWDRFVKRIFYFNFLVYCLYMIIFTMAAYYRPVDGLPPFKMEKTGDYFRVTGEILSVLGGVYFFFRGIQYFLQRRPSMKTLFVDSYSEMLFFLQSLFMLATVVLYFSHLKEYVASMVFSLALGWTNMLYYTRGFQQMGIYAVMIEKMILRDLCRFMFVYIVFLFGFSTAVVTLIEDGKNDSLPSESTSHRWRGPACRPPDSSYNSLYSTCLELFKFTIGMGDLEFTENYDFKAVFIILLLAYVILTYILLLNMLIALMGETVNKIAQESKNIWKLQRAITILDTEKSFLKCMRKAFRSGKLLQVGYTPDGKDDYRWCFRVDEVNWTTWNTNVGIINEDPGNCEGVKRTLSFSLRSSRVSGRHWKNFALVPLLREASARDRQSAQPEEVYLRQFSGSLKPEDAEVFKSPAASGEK

Row | SMILES | discoloration of solution [1] | effect on cardiac inflammation produced by doxorubicin [2] | inhibition of anandamide (anandamide) | solubility [3] [µg/mL] | stimulation of VR1 [4] | reported solubility of CBD [5] [%] | effect on ovalbumin-induced airway obstruction [6] | solubility (weight to weight) of CBD ([7]; in ethanol) | solubility (weight to weight) of CBD ([7]; in hexamethyldisiloxane (HDS)) | solubility (weight to weight) of CBD ([7]; in isopropyl alcohol (IPA)) | solubility of CBD ([7]; in isopropyl myristate (IPM)) [%] | solubility (weight to weight) of CBD ([7]; in mineral oil) | solubility (weight to weight) of CBD ([7]; in oleyl alcohol (OA), did not go higher in studies) | solubility (weight to weight) of CBD ([7]; in propylene glycol (PG))
1 | C=C(C)[C@@H]1CCC(C)=C[C@H]1c1c(O)cc(CCCCC)cc1O [CBD1] | colored by the end of the day | – | – | – | – | – | – | – | – | – | – | – | – | –
2 | C=C(C)[C@@H]1CCC(C)=C[C@H]1c1c(O)cc(CCCCC)cc1O [CBD2] | None of the CBD2 solutions were colored at the end of day 1 | – | – | – | – | – | – | – | – | – | – | – | – | –
3 | C=C(C)C1CCC(C)=CC1c1c(O)cc(CCCCC)cc1O (stereo not drawn) [CBD, 2-[3-methyl-6-(1-methylethenyl)-2-cyclohexen-1-yl]-5-pentyl-1,3-benzenediol] | – | attenuated cardiac inflammation | inhibit anandamide | > 50 | maximum effect similar in efficacy to that of capsaicin | 3.5 | attenuated ovalbumin-induced airway obstruction | 6-7% | 3-4% | greater than 14% | ~9.5 | 3-4% | greater than 8% | 6-7%
